{
  "source": "paper PMC12220852",
  "about": "“An adamantane‐based ligand as a novel chemical tool for thermosensory TRPM8 channel therapeutic modulation” (The Febs Journal, 2025)",
  "key": {"[1]": {"tested_on": "AITC‐induced excitability in murine nociceptors", "experiment": "Multielectrode array (MEA): AITC-induced firing in nociceptors", "assay_type": "cell-based", "conditions": "5 μM compound, 100 μM AITC, P2/P1", "method": "Additionally, we investigated the effect of compound 23 on capsaicin and AITC‐induced excitability in murine nociceptors. Employing an IC50 value of 1 μM for TRPV1 and 5 μM for TRPA1 of firing inhibition by compound 23 (Fig. 4), we interrogated its ability to modulate neuronal excitability. As for TRPM8, our experimental design involved a protocol of dual agonist pulses interspersed with a washing pulse to minimize agonist‐induced channel desensitization. Compound 23 was administered 1 min prior to and during the second agonist pulse.\nPrimary cultures of neonatal dorsal root ganglia were used for multielectrode array (MEA) and patch‐clamp experiments following established methodologies previously described. Neonatal dorsal root ganglia (DRGs) were obtained from Wistar rats (3–5 days old) and were isolated and digested with 0.25% (w/v) collagenase (type IA) in DMEM GlutaMax with 1% (v/v) penicillin/streptomycin (P/S) solution for 1 h at 37 °C in a 5% CO2 Thermo Scientific incubator. Following digestion, DRGs were mechanically dissociated and passed through a 100 μm cell strainer to obtain single‐cell suspensions. Suspensions were washed with DMEM GlutaMax with 10% (v/v) fetal bovine serum (FBS) and 1% (v/v) penicillin/streptomycin (P/S). Cells were then seeded in microelectrode array chambers coated with poly‐L‐lysine (8.3 μg·mL^−1) and laminin (5 μg·mL^−1). […]"}, "[2]": {"tested_on": "WS‐12‐evoked action potentials in primary cultures of murine DRG sensory neurons", "experiment": "Multielectrode array (MEA): WS-12-evoked action potential firing in DRG sensory neurons", "assay_type": "cell-based", "conditions": "Mus musculus, Neuron; 0.43 μM compound, 1 μM WS-12, MEA, P2/P1; read-out: inhibition of WS‐12‐induced action potential firing", "method": "Complementarily, we examined the effect of compound 23 on WS‐12‐evoked action potentials in primary cultures of murine DRG sensory neurons. For this task, we recorded neuronal excitability using multielectrode arrays (MEAs). […] A protocol of two sequential pulses of WS‐12 interspersed with a washing pulse was applied to correct for channel desensitization (Fig. 7A, upper recording). Compounds 23 and AMTB (0.43 and 10 μM, respectively) were applied 1 min before and during the second WS‐12 pulse (Fig. 7A, second, third, and fourth recordings). As depicted in Fig. 7B, compound 23 virtually abolished action potential firings induced by WS‐12 application in murine primary afferent neurons (≥ 75%). Thus, compound 23 appears to be a potent inhibitor of WS12‐evoked firing frequency, even surpassing the efficacy of AMTB […] (Fig. 7B).\nPrimary cultures of neonatal dorsal root ganglia were used for multielectrode array (MEA) and patch‐clamp experiments following established methodologies previously described. Neonatal dorsal root ganglia (DRGs) were obtained from Wistar rats (3–5 days old) and were isolated and digested with 0.25% (w/v) collagenase (type IA) in DMEM GlutaMax with 1% (v/v) penicillin/streptomycin (P/S) solution for 1 h at 37 °C in a 5% CO2 Thermo Scientific incubator. […]"}},
  "data": [
    {"smiles": "O=C(COC(=O)c1ccccc1-c1ccccc1)NC12CC3CC(CC(C3)C1)C2", "note": "[Compound 23, 2‐((3S,5S,7S)‐adamantan‐1‐ylamino)‐2‐oxoethyl [1,1′‐biphenyl]‐2‐carboxylate]", "values": [
      {"measurement": "attenuation of AITC‐induced firing", "setting": "[1]", "value": 40, "unit": "%"},
      {"measurement": "inhibition at 0.43 µM", "setting": "[2]", "value": "≥ 75", "unit": "%"}
    ]}
  ]
}
